Columns and labels:
[1] = target: T1, PTHR1 (Homo sapiens, UniProt Q03431); assay: class B GPCR panel cAMP assay, PTHR1; format: cell-based; settings: read-out: Max response
T1 construct: host or cells: cells expressing PTHR1 (unnamed vendor)
T1 sequence (Q03431 27-593): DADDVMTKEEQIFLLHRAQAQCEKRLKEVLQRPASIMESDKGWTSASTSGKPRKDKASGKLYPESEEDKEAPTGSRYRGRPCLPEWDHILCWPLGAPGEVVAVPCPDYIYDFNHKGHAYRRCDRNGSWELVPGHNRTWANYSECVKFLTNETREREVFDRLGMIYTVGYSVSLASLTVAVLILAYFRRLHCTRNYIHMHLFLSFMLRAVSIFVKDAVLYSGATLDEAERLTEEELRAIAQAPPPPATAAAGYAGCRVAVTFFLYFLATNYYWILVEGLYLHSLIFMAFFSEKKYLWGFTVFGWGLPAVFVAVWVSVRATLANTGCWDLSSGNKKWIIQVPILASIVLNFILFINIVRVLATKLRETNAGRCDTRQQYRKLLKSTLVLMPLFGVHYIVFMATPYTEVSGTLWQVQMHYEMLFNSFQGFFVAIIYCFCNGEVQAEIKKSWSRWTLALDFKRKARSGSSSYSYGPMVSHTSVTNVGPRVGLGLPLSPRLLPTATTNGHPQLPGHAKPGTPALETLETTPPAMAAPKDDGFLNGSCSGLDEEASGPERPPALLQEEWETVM
Procedure: (§1) The assays were performed according to the vendor's standard operating procedures with a positive control included for each receptor tested.

[2] = target: T2, CALCR (Homo sapiens, UniProt P30988); assay: class B GPCR panel cAMP assay, CALCR; format: cell-based
T2 construct: host or cells: cells expressing CALCR (unnamed vendor)
T2 sequence (P30988 25-474): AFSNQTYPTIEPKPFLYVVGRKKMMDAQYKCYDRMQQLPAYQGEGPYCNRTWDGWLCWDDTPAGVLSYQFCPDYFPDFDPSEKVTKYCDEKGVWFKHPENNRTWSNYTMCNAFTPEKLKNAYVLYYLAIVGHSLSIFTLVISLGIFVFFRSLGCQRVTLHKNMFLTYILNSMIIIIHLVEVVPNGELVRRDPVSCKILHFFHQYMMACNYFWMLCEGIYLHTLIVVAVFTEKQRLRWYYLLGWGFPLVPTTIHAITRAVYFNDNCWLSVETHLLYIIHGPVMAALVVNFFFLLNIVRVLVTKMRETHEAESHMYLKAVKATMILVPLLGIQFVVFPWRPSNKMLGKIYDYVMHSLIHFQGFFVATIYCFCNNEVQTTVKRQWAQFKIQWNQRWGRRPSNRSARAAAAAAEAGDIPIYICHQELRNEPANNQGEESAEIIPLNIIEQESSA
Procedure: as §1

SMILES	Emax [1]	Curve Bottom ([2]; CALCR cAMP assay)	Curve Top ([2]; CALCR cAMP assay)	Hill ([2]; CALCR cAMP assay)	Emax ([2]; read-out: Max response)
CC[C@H](C)[C@H](NC(=O)[C@H](CCC(=O)O)NC(=O)[C@H](CO)NC(=O)[C@@H](NC(=O)[C@@H](N)CO)C(C)C)C(=O)N[C@@H](CCC(N)=O)C(=O)N[C@@H](CC(C)C)C(=O)N[C@@H](CCSC)C(=O)N[C@@H](Cc1cnc[nH]1)C(=O)N[C@@H](CC(N)=O)C(=O)N[C@@H](CC(C)C)C(=O)NCC(=O)N[C@@H](CCCCN)C(=O)N[C@@H](Cc1cnc[nH]1)C(=O)N[C@@H](CC(C)C)C(=O)N[C@@H](CC(N)=O)C(=O)N[C@@H](CO)C(=O)N[C@@H](CCSC)C(=O)N[C@@H](CCC(=O)O)C(=O)N[C@@H](CCCNC(=N)N)C(=O)N[C@H](C(=O)N[C@@H](CCC(=O)O)C(=O)N[C@@H](Cc1c[nH]c2ccccc12)C(=O)N[C@@H](CC(C)C)C(=O)N[C@@H](CCCNC(=N)N)C(=O)N[C@@H](CCCCN)C(=O)N[C@@H](CCCCN)C(=O)N[C@@H](CC(C)C)C(=O)N[C@@H](CCC(N)=O)C(=O)N[C@@H](CC(=O)O)C(=O)N[C@H](C(=O)N[C@@H](Cc1cnc[nH]1)C(=O)N[C@@H](CC(N)=O)C(=O)N[C@@H](Cc1ccccc1)C(=O)O)C(C)C)C(C)C [PTH(1-34)]	93.6%	–	–	–	–
CC(C)C[C@H](NC(=O)[C@H](CCCCN)NC(=O)CNC(=O)[C@H](CC(C)C)NC(=O)[C@@H](NC(=O)[C@@H]1CSSC[C@H](N)C(=O)N[C@@H](CO)C(=O)N[C@@H](CC(N)=O)C(=O)N[C@@H](CC(C)C)C(=O)N[C@@H](CO)C(=O)N[C@@H]([C@@H](C)O)C(=O)N1)C(C)C)C(=O)N[C@@H](CO)C(=O)N[C@@H](CCC(N)=O)C(=O)N[C@@H](CCC(=O)O)C(=O)N[C@@H](CC(C)C)C(=O)N[C@@H](Cc1c[nH]cn1)C(=O)N[C@@H](CCCCN)C(=O)N[C@@H](CC(C)C)C(=O)N[C@@H](CCC(N)=O)C(=O)N[C@H](C(=O)N[C@@H](Cc1ccc(O)cc1)C(=O)N1CCC[C@H]1C(=O)N[C@@H](CCCNC(=N)N)C(=O)N[C@H](C(=O)N[C@@H](CC(N)=O)C(=O)N[C@H](C(=O)NCC(=O)N[C@@H](CO)C(=O)NCC(=O)N[C@H](C(=O)N1CCC[C@H]1C(N)=O)[C@@H](C)O)[C@@H](C)O)[C@@H](C)O)[C@@H](C)O [Calcitonin]	–	−6.2187	105	1.5254	101%

Reference: patent US10428134B2, “Immunoglobulins and uses thereof” (JANSSEN PHARMACEUTICA NV, priority 2016, dated 2019)
